Source: the supplement of paper PMC10307832

Columns and labels:
Experiment in all cases: relative viability (nuclei count vs DMSO), 5 days (fraction); higher = more cells survive
[1] = compound: CC1=NC=CC(=C1)C2=CC=C(C=C2)CC(=O)NC3=CC=C(C=C3)C4=CN=CC=C4 [Wnt-C59] + COc1cccc2cc(-c3nc([C@H]4CC[C@H](C(=O)O)CC4)n4ncnc(N)c34)[nH]c12 [OSI-027] (partner 0.5 µM)
Outline: (§1)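 Five library-drug doses in √10 steps were combined with a fixed anchor-drug dose, or a single drug was given alone, by pin tool to lung cancer cell lines in 1536-well plates the day after seeding. Nuclei were stained and counted after 5 days. Relative viability is the nuclei count in treated wells over that in vehicle wells, taken as the median of duplicate plates.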

[2] = compound: CS(=O)(=O)CCNCc1ccc(-c2ccc3ncnc(Nc4ccc(OCc5cccc(F)c5)c(Cl)c4)c3c2)o1 [Lapatinib] + CC(=O)c1c(C)c2cnc(Nc3ccc(N4CCNCC4)cn3)nc2n(C2CCCC2)c1=O [Palbociclib] (partner 0.5 µM)
Outline: as §1

[3] = compound: CC1=NC=CC(=C1)C2=CC=C(C=C2)CC(=O)NC3=CC=C(C=C3)C4=CN=CC=C4 [Wnt-C59] + C[C@]1(O)C[C@@H](c2nc(-c3ccc4ccc(-c5ccccc5)nc4c3)c3c(N)nccn32)C1 [Linsitinib] (partner 1 µM)
Outline: as §1

[4] = compound: CS(=O)(=O)CCNCc1ccc(-c2ccc3ncnc(Nc4ccc(OCc5cccc(F)c5)c(Cl)c4)c3c2)o1 [Lapatinib] + C[C@]1(O)C[C@@H](c2nc(-c3ccc4ccc(-c5ccccc5)nc4c3)c3c(N)nccn32)C1 [Linsitinib] (partner 1 µM)
Outline: as §1

HCC-827
relative viability ([1]; first compound 0.001 µM): 0.877
relative viability ([1]; first compound 0.01 µM): 0.724
relative viability ([1]; first compound 0.03162 µM): 0.9
relative viability ([1]; first compound 0.1 µM): 0.761
relative viability ([2]; first compound 0.02 µM): 0.435
relative viability ([2]; first compound 0.06325 µM): 0.433
relative viability ([2]; first compound 0.2 µM): 0.461
relative viability ([2]; first compound 0.6325 µM): 0.257
relative viability ([2]; first compound 2 µM): 0.415
relative viability ([3]; first compound 0.001 µM): 1
relative viability ([3]; first compound 0.01 µM): 0.966
relative viability ([3]; first compound 0.03162 µM): 0.977
relative viability ([3]; first compound 0.1 µM): 0.884
relative viability ([4]; first compound 0.02 µM): 0.944
relative viability ([4]; first compound 0.06325 µM): 0.986
relative viability ([4]; first compound 0.2 µM): 0.928
relative viability ([4]; first compound 0.6325 µM): 1.05
relative viability ([4]; first compound 2 µM): 0.936

HOP-62
relative viability ([1]; first compound 0.001 µM): 0.743
relative viability ([1]; first compound 0.01 µM): 0.813
relative viability ([1]; first compound 0.03162 µM): 0.788
relative viability ([1]; first compound 0.1 µM): 0.852
relative viability ([2]; first compound 0.06325 µM): 0.44
relative viability ([2]; first compound 0.2 µM): 0.457
relative viability ([2]; first compound 0.6325 µM): 0.451
relative viability ([2]; first compound 2 µM): 0.432
relative viability ([3]; first compound 0.001 µM): 1.09
relative viability ([3]; first compound 0.01 µM): 1.1
relative viability ([3]; first compound 0.03162 µM): 1.14
relative viability ([3]; first compound 0.1 µM): 0.95
relative viability ([4]; first compound 0.06325 µM): 0.923
relative viability ([4]; first compound 0.2 µM): 0.91
relative viability ([4]; first compound 0.6325 µM): 0.857
relative viability ([4]; first compound 2 µM): 1.01

IA-LM
relative viability ([3]; first compound 0.001 µM): 0.67
relative viability ([3]; first compound 0.01 µM): 0.549
relative viability ([3]; first compound 0.03162 µM): 0.621
relative viability ([3]; first compound 0.1 µM): 0.533
relative viability ([4]; first compound 0.02 µM): 0.655
relative viability ([4]; first compound 0.06325 µM): 0.605
relative viability ([4]; first compound 0.2 µM): 0.583
relative viability ([4]; first compound 0.6325 µM): 0.541
relative viability ([4]; first compound 2 µM): 0.792

LC-2-ad
relative viability ([1]; first compound 0.001 µM): 1.18
relative viability ([1]; first compound 0.01 µM): 0.822
relative viability ([1]; first compound 0.03162 µM): 0.937
relative viability ([1]; first compound 0.1 µM): 0.729
relative viability ([2]; first compound 0.06325 µM): 0.522
relative viability ([2]; first compound 0.2 µM): 0.527
relative viability ([2]; first compound 0.6325 µM): 0.501
relative viability ([2]; first compound 2 µM): 0.476
relative viability ([3]; first compound 0.001 µM): 0.864
relative viability ([3]; first compound 0.01 µM): 0.811
relative viability ([3]; first compound 0.03162 µM): 0.944
relative viability ([3]; first compound 0.1 µM): 0.776
relative viability ([4]; first compound 0.06325 µM): 0.817
relative viability ([4]; first compound 0.2 µM): 0.799
relative viability ([4]; first compound 0.6325 µM): 0.694
relative viability ([4]; first compound 2 µM): 0.585

LCLC-97TM1
relative viability ([1]; first compound 0.001 µM): 0.581
relative viability ([1]; first compound 0.01 µM): 0.512
relative viability ([1]; first compound 0.03162 µM): 0.667
relative viability ([1]; first compound 0.1 µM): 0.502
relative viability ([2]; first compound 0.06325 µM): 0.135
relative viability ([2]; first compound 0.2 µM): 0.248
relative viability ([2]; first compound 0.6325 µM): 0.19
relative viability ([2]; first compound 2 µM): 0.233
relative viability ([3]; first compound 0.001 µM): 0.182
relative viability ([3]; first compound 0.01 µM): 0.171
relative viability ([3]; first compound 0.03162 µM): 0.176
relative viability ([3]; first compound 0.1 µM): 0.156
relative viability ([4]; first compound 0.2 µM): 0.186
relative viability ([4]; first compound 0.6325 µM): 0.198
relative viability ([4]; first compound 2 µM): 0.187

LCLC-103H
relative viability ([1]; first compound 0.001 µM): 0.458
relative viability ([1]; first compound 0.01 µM): 0.533
relative viability ([1]; first compound 0.03162 µM): 0.527
relative viability ([1]; first compound 0.1 µM): 0.498
relative viability ([2]; first compound 0.02 µM): 0.445
relative viability ([2]; first compound 0.06325 µM): 0.486
relative viability ([2]; first compound 0.2 µM): 0.478
relative viability ([2]; first compound 0.6325 µM): 0.533
relative viability ([2]; first compound 2 µM): 0.441
relative viability ([3]; first compound 0.001 µM): 1.08
relative viability ([3]; first compound 0.01 µM): 1.08
relative viability ([3]; first compound 0.03162 µM): 0.986
relative viability ([3]; first compound 0.1 µM): 1.09
relative viability ([4]; first compound 0.06325 µM): 0.978
relative viability ([4]; first compound 0.2 µM): 0.998
relative viability ([4]; first compound 0.6325 µM): 0.955
relative viability ([4]; first compound 2 µM): 1.08

LK-2
relative viability ([1]; first compound 0.001 µM): 0.211
relative viability ([1]; first compound 0.01 µM): 0.265
relative viability ([1]; first compound 0.03162 µM): 0.199
relative viability ([1]; first compound 0.1 µM): 0.229
relative viability ([2]; first compound 0.02 µM): 0.634
relative viability ([2]; first compound 0.2 µM): 0.832
relative viability ([2]; first compound 2 µM): 1.01
relative viability ([3]; first compound 0.001 µM): 0.529
relative viability ([3]; first compound 0.01 µM): 0.708
relative viability ([3]; first compound 0.03162 µM): 0.563
relative viability ([3]; first compound 0.1 µM): 0.582
relative viability ([4]; first compound 0.02 µM): 0.704
relative viability ([4]; first compound 0.06325 µM): 0.487
relative viability ([4]; first compound 0.2 µM): 0.377
relative viability ([4]; first compound 0.6325 µM): 0.66
relative viability ([4]; first compound 2 µM): 0.575

LOU-NH91
relative viability ([1]; first compound 0.001 µM): 0.76
relative viability ([1]; first compound 0.01 µM): 0.571
relative viability ([1]; first compound 0.03162 µM): 0.718
relative viability ([1]; first compound 0.1 µM): 0.738
relative viability ([2]; first compound 0.02 µM): 0.542
relative viability ([2]; first compound 0.06325 µM): 0.525
relative viability ([2]; first compound 0.2 µM): 0.508
relative viability ([2]; first compound 0.6325 µM): 0.494
relative viability ([2]; first compound 2 µM): 0.57
relative viability ([3]; first compound 0.001 µM): 1.07
relative viability ([3]; first compound 0.01 µM): 0.748
relative viability ([3]; first compound 0.03162 µM): 0.854
relative viability ([3]; first compound 0.1 µM): 0.899
relative viability ([4]; first compound 0.02 µM): 0.861
relative viability ([4]; first compound 0.06325 µM): 0.761
relative viability ([4]; first compound 0.2 µM): 0.753
relative viability ([4]; first compound 0.6325 µM): 0.637
relative viability ([4]; first compound 2 µM): 0.464

LU99A
relative viability ([1]; first compound 0.001 µM): 0.307
relative viability ([1]; first compound 0.01 µM): 0.281
relative viability ([1]; first compound 0.03162 µM): 0.342
relative viability ([1]; first compound 0.1 µM): 0.274
relative viability ([2]; first compound 0.02 µM): 0.449
relative viability ([2]; first compound 0.06325 µM): 0.299
relative viability ([2]; first compound 0.2 µM): 0.385
relative viability ([2]; first compound 0.6325 µM): 0.424
relative viability ([2]; first compound 2 µM): 0.39
relative viability ([3]; first compound 0.001 µM): 0.554
relative viability ([3]; first compound 0.01 µM): 0.508
relative viability ([3]; first compound 0.03162 µM): 0.594
relative viability ([3]; first compound 0.1 µM): 0.495
relative viability ([4]; first compound 0.02 µM): 0.534
relative viability ([4]; first compound 0.06325 µM): 0.511
relative viability ([4]; first compound 0.2 µM): 0.581
relative viability ([4]; first compound 0.6325 µM): 0.565
relative viability ([4]; first compound 2 µM): 0.561

LXF-289
relative viability ([1]; first compound 0.001 µM): 0.779
relative viability ([1]; first compound 0.01 µM): 0.807
relative viability ([1]; first compound 0.03162 µM): 0.828
relative viability ([1]; first compound 0.1 µM): 0.809
relative viability ([2]; first compound 0.02 µM): 0.615
relative viability ([2]; first compound 0.06325 µM): 0.588
relative viability ([2]; first compound 0.2 µM): 0.588
relative viability ([2]; first compound 0.6325 µM): 0.577
relative viability ([2]; first compound 2 µM): 0.526
relative viability ([3]; first compound 0.001 µM): 0.99
relative viability ([3]; first compound 0.01 µM): 0.933
relative viability ([3]; first compound 0.03162 µM): 1
relative viability ([3]; first compound 0.1 µM): 0.918
relative viability ([4]; first compound 0.02 µM): 0.983
relative viability ([4]; first compound 0.06325 µM): 0.913
relative viability ([4]; first compound 0.2 µM): 0.982
relative viability ([4]; first compound 0.6325 µM): 0.902
relative viability ([4]; first compound 2 µM): 0.816
